Holding throughout (assay type): functional
Assay [1] has as its system Pseudomonas aeruginosa. As to the kind of experiment: Antibacterial activity against Pseudomonas aeruginosa LES431 clinical isolate after 16 to 20 hrs by microdilution assay.
The test system of assay [2] is Pseudomonas aeruginosa. Nature of the assay: Antibacterial activity against Pseudomonas aeruginosa VW1633 clinical isolate after 16 to 20 hrs by microdilution assay.
For assay [3], the system named is Pseudomonas aeruginosa. Nature of the assay: Antibacterial activity against Pseudomonas aeruginosa KD491 clinical isolate after 16 to 20 hrs by microdilution assay.

Molecules are shown by their SMILES. ≈ marks a conversion by molar mass, not a printed value. Peptide text beside a SMILES is read from it. * marks the point of attachment. DEAC = CCN(CC)c1ccc2cc(C(=O)*)c(=O)oc2c1; Myristoyl = CCCCCCCCCCCCCC(=O)*; Lauroyl = CCCCCCCCCCCC(=O)*; Decanoyl = CCCCCCCCCC(=O)*; Octanoyl = CCCCCCCC(=O)*; Hexanoyl = CCCCCC(=O)*

Regarding `CCCCCCCCCC(=O)N[C@@H](CCCNC(=N)N)C(=O)N[C@@H](Cc1c[nH]c2ccccc12)C(=O)N[C@@H](CCCNC(=N)N)C(=O)N[C@@H](Cc1c[nH]c2ccccc12)C(=O)N[C@@H](CCCNC(=N)N)C(=O)N[C@@H](Cc1c[nH]c2ccccc12)C(=O)N[C@@H](CCCCN)C(=O)O` (Decanoyl-RWRWRWK-OH), the minimal inhibitory concentration (MIC) was determined as 32 µg/mL (≈ 24.1 µM) with Pseudomonas aeruginosa [1], 64 µg/mL (≈ 48.2 µM) with Pseudomonas aeruginosa [2] and 32 µg/mL (≈ 24.1 µM) with Pseudomonas aeruginosa [3].
With `CCN(CC)c1ccc2cc(C(=O)NCCCC[C@H](NC(=O)[C@H](Cc3c[nH]c4ccccc34)NC(=O)[C@H](CCCNC(=N)N)NC(=O)[C@H](Cc3c[nH]c4ccccc34)NC(=O)[C@H](CCCNC(=N)N)NC(=O)[C@H](Cc3c[nH]c4ccccc34)NC(=O)[C@@H](N)CCCNC(=N)N)C(=O)O)c(=O)oc2c1` (H-RWRWRWK(DEAC)-OH), the minimal inhibitory concentration (MIC) with Pseudomonas aeruginosa [1] was more than 128 µg/mL; in the assay with Pseudomonas aeruginosa [2], 64 µg/mL (≈ 45.2 µM); in the assay with Pseudomonas aeruginosa [3], 64 µg/mL (≈ 45.2 µM).
As to `CCCCCC(=O)NCCCC[C@H](NC(=O)[C@H](Cc1c[nH]c2ccccc12)NC(=O)[C@H](CCCNC(=N)N)NC(=O)[C@H](Cc1c[nH]c2ccccc12)NC(=O)[C@H](CCCNC(=N)N)NC(=O)[C@H](Cc1c[nH]c2ccccc12)NC(=O)[C@@H](N)CCCNC(=N)N)C(=O)O` (H-RWRWRWK(Hexanoyl)-OH), the MIC in the assay with Pseudomonas aeruginosa [1] is more than 128 µg/mL; against Pseudomonas aeruginosa [2] it was 16 µg/mL (≈ 12.6 µM); against Pseudomonas aeruginosa [3], 32 µg/mL (≈ 25.2 µM).
In the same order, the values of `CCCCCCCCCCCC(=O)NCCCC[C@H](NC(=O)[C@H](Cc1c[nH]c2ccccc12)NC(=O)[C@H](CCCNC(=N)N)NC(=O)[C@H](Cc1c[nH]c2ccccc12)NC(=O)[C@H](CCCNC(=N)N)NC(=O)[C@H](Cc1c[nH]c2ccccc12)NC(=O)[C@@H](N)CCCNC(=N)N)C(=O)O` (H-RWRWRWK(Lauroyl)-OH) are 64 µg/mL (≈ 47.2 µM), 32 µg/mL (≈ 23.6 µM) and more than 128 µg/mL.
Take `CCCCCCCCCCCCCC(=O)NCCCC[C@H](NC(=O)[C@H](Cc1c[nH]c2ccccc12)NC(=O)[C@H](CCCNC(=N)N)NC(=O)[C@H](Cc1c[nH]c2ccccc12)NC(=O)[C@H](CCCNC(=N)N)NC(=O)[C@H](Cc1c[nH]c2ccccc12)NC(=O)[C@@H](N)CCCNC(=N)N)C(=O)O` (H-RWRWRWK(Myristoyl)-OH): the results for the MIC with Pseudomonas aeruginosa [1], with Pseudomonas aeruginosa [2] and against Pseudomonas aeruginosa [3] were 128 µg/mL (≈ 92.5 µM), more than 128 µg/mL and more than 128 µg/mL, respectively.
As for `CCCCCCCC(=O)NCCCC[C@H](NC(=O)[C@H](Cc1c[nH]c2ccccc12)NC(=O)[C@H](CCCNC(=N)N)NC(=O)[C@H](Cc1c[nH]c2ccccc12)NC(=O)[C@H](CCCNC(=N)N)NC(=O)[C@H](Cc1c[nH]c2ccccc12)NC(=O)[C@@H](N)CCCNC(=N)N)C(=O)O` (H-RWRWRWK(Octanoyl)-OH), the MIC against Pseudomonas aeruginosa [1] amounted to 128 µg/mL (≈ 98.5 µM); in the assay on Pseudomonas aeruginosa [2], 16 µg/mL (≈ 12.3 µM); in the assay on Pseudomonas aeruginosa [3], 16 µg/mL (≈ 12.3 µM).

The values above are taken from ChEMBL document CHEMBL3779859, “Synergistic activity of a short lipidated antimicrobial peptide (lipoAMP) and colistin or tobramycin against Pseudomonas aeruginosa from cystic fibrosis patients” (Medchemcomm, 2016).
